Data as given in PMC5107250, “Identification of Novel Inhibitors against Coactivator Associated Arginine Methyltransferase 1 Based on Virtual Screening and Biological Assays” (BioMed Research International, 2016).

Legend:
[1] = target: T1, CARM1 (Homo sapiens, UniProt Q86X55); assay: AlphaLISA CARM1 enzyme inhibition assay; type: biochemical; settings: biotinylated H3 peptide 50 nM, SAM 300 nM, enzyme 0.1 nM, in duplicate
T1 sequence (Q86X55 1-608): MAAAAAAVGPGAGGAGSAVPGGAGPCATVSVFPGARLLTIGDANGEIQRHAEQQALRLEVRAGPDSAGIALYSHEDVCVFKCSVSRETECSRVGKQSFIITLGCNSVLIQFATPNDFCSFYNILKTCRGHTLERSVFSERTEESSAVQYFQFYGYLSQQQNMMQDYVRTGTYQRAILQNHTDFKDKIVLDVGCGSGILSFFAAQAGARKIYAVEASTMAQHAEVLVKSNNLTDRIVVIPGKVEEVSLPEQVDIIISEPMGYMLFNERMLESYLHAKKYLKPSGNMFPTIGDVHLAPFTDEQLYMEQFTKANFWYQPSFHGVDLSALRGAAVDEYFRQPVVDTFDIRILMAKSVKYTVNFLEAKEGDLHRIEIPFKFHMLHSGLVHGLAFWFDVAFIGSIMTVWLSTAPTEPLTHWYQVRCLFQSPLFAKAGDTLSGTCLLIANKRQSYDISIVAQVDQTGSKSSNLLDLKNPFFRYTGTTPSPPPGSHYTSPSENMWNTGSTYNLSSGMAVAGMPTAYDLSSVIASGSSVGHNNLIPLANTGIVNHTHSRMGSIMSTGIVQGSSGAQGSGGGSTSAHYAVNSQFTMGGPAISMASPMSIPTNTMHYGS
Description: The enzymatic inhibitory activities of compounds were measured by the AlphaLISA assay provided by Shanghai ChemPartner Co., Ltd. The compounds selected from virtual screening were transferred to the assay plate (white opaque OptiPlate-384, PerkinElmer). 5 μL of enzyme solution (final concentration was 0.1 nM) or pH 8.0 tris-based assay buffer (for Min well) was added to the assay plate and then centrifuged at 1000 rpm for 1 min. Afterwards, the assay plate was incubated for 15 min at room temperature (RT). Then 5 μL of biotinylated H3 peptide/SAM mix (final concentrations were 50 nM and 300 nM, resp.) was added to the assay plate, which was covered with TopSeal-Afilm and incubated for 1 h at RT after centrifuging at 1000 rpm for 1 min (DMSO final concentration 1%). Next, 5 μL of acceptor beads (final concentration was 10 μg/mL) was added to stop the enzymatic reaction. […] Finally, the mixtures were incubated for 30 min at RT, and the signal was read in alpha mode using EnVision readers. The IC50 values were calculated by fit inhibition rates under different concentrations into GraphPad Prism 5.0 software. […] The end point was read in alpha mode using EnVision readers, and IC50 values were calculated in GraphPad Prism 5.0 software.

[2] = target: PRMT1 (Homo sapiens, UniProt Q99873); assay: In vitro enzyme selectivity assay, PRMT1; type: biochemical; settings: in duplicate
PRMT1, sequence (Q99873 whole entry, species assumed): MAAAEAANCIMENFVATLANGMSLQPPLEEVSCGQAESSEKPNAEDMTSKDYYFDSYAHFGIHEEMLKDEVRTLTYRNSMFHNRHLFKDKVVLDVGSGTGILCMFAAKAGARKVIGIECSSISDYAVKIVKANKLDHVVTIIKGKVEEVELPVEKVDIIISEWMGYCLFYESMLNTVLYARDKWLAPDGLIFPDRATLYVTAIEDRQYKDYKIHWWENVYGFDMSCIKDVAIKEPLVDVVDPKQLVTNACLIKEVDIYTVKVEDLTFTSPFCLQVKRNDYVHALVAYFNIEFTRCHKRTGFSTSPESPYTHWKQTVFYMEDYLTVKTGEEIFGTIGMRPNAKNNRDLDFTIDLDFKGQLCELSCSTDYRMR
Description: (§1) The enzymatic inhibitory activities of compounds were measured by the AlphaLISA assay provided by Shanghai ChemPartner Co., Ltd. The compounds selected from virtual screening were transferred to the assay plate (white opaque OptiPlate-384, PerkinElmer). 5 μL of enzyme solution (final concentration was 0.1 nM) or pH 8.0 tris-based assay buffer (for Min well) was added to the assay plate and then centrifuged at 1000 rpm for 1 min. Afterwards, the assay plate was incubated for 15 min at room temperature (RT). Then 5 μL of biotinylated H3 peptide/SAM mix (final concentrations were 50 nM and 300 nM, resp.) was added to the assay plate, which was covered with TopSeal-Afilm and incubated for 1 h at RT after centrifuging at 1000 rpm for 1 min (DMSO final concentration 1%). Next, 5 μL of acceptor beads (final concentration was 10 μg/mL) was added to stop the enzymatic reaction. After incubating at room temperature for 60 min, 10 μL of donor beads was added (final concentration was 10 μg/mL) in subdued light and then centrifuged at 1000 rpm for 1 min. Finally, the mixtures were incubated for 30 min at RT, and the signal was read in alpha mode using EnVision readers. The IC50 values were calculated by fit inhibition rates under different concentrations into GraphPad Prism 5.0 software. […]

[3] = target: PRMT6 (Homo sapiens, UniProt Q96LA8); assay: In vitro enzyme selectivity assay, PRMT6; type: biochemical; settings: in duplicate
PRMT6, sequence (Q96LA8 whole entry, species assumed): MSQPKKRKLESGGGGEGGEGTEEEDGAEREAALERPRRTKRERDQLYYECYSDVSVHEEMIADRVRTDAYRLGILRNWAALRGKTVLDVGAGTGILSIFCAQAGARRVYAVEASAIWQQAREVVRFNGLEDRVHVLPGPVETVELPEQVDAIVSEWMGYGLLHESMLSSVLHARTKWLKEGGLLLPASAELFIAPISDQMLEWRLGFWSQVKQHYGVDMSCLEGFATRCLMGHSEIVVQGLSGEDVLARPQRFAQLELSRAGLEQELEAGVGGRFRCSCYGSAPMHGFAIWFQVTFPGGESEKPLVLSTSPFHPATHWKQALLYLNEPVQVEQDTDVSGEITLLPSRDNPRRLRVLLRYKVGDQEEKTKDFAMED
Description: as §1

[4] = test system: HELA (cervical cancer); assay: Cell viability (MTT) assay, HELA; type: cell-based, human; settings: 24 hrs, 48 hrs, 72 hrs, Figure 2
Description: (§2) The three cell lines, HELA, K562, and MCF7, were purchased from the American Type Culture Collection (ATCC). HELA, K562, and MCF7 were cultured in DMEM (Life Technologies) supplemented with 10% FBS. All of the cell lines were seeded into 96-well plates at an appropriate density and then treated with compounds of different concentrations or DMSO control. After 24 hrs, 48 hrs, and 72 hrs, cell viabilities were measured by the MTT assay. It has been reported that CARM1 was a potential target in many cancers; thus it is well accepted that inhibiting CARM1 could affect cancer cell proliferation. In this study, three human tumor cell lines including HELA (cervical cancer), K562 (myeloid leukemia), and MCF7 (breast cancer) were chosen to evaluate the cellular activity of the two compounds DC_C11 and DC_[…]. Sinefungin, a pan-PRMTs inhibitor which has the same scaffold as the cofactor SAM does, was evaluated for control experiment. […] In the three cell lines, DC_[…] presents better antiproliferative cellular activity, which is consistent with their inhibitory activity in vitro. Combined with the biological data in vitro, we confirmed that compounds DC_C11 and DC_[…] are cell membrane permeable, which presented promising activity both in vitro and in cellular environment.  Figure 2 Antiproliferative effect of DC_C11 and DC_[…] on several cancer cell lines. (a-c) Time-dependent and dose-dependent inhibitory effect of DC_C11 on HELA, K562, and MCF7 within 24 hrs, 48 hrs, and 72 hrs, respectively. (d-f) Time-dependent and dose-dependent inhibitory effect of DC_[…] on HELA, K562, and MCF7 within 24 hrs, 48 hrs, and 72 hrs, respectively. (g-i) Time-dependent and dose-dependent inhibitory effect of Sinefungin on HELA, K562, and MCF7 within 24 hrs, 48 hrs, and 72 hrs, respectively.

[5] = test system: K562 (myeloid leukemia); assay: Cell viability (MTT) assay, K562; type: cell-based, human; settings: 24 hrs, 48 hrs, 72 hrs, Figure 2
Description: as §2

[6] = test system: MCF7 (breast cancer); assay: Cell viability (MTT) assay, MCF7; type: cell-based, human; settings: 24 hrs, 48 hrs, 72 hrs, Figure 2
Description: as §2

[7] = target: PRMT5 (Homo sapiens, UniProt O14744); assay: In vitro enzyme selectivity assay, PRMT5; type: biochemical; settings: at a concentration of 50 μM; read-out: inhibition rate of PRMT5
PRMT5, sequence (O14744 whole entry, species assumed): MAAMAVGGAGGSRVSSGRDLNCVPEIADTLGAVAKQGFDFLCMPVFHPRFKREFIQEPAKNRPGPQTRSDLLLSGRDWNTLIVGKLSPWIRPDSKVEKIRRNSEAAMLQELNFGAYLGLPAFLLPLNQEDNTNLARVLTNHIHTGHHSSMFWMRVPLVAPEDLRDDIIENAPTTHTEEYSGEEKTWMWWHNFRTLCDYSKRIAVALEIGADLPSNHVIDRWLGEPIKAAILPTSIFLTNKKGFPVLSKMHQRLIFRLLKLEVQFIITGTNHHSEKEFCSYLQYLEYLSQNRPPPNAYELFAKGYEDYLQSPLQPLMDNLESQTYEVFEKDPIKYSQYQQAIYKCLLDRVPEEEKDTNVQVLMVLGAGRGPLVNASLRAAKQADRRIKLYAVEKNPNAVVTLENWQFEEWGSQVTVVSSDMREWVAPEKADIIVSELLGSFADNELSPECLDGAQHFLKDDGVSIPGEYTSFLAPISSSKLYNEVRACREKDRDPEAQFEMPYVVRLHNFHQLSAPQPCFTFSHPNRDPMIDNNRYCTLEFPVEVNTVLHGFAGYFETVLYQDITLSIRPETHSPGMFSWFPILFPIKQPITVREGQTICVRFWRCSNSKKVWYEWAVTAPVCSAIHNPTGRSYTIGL
PRMT5, sequence (Q9BQA1 whole entry partner, species assumed): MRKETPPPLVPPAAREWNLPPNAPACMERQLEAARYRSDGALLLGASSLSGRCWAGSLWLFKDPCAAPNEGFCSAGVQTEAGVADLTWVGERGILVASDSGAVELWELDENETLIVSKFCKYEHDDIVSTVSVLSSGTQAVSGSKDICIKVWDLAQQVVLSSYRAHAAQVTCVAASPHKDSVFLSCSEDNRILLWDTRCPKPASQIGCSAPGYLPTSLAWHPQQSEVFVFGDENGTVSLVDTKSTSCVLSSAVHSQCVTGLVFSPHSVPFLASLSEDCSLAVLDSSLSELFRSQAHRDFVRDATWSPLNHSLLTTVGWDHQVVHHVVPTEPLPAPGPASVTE
Description: as §1

| Compound | IC50 [1] [µM] | IC50 [2] [µM] | IC50 [3] [µM] | Antiproliferative effect on HELA [4] | Antiproliferative effect on K562 [5] | Antiproliferative effect on MCF7 [6] | inhibition at 50 µM [7] [%] |
| --- | --- | --- | --- | --- | --- | --- | --- |
| O=C(c1ccccc1)c1c2c(cc3sc4ccccc4[n+]13)-c1cccc3cccc-2c13 [DC_C11] | 15 | 36 | 41 | inhibit proliferation of cancer cells in a time-dependent and dose-dependent manner | inhibit proliferation of cancer cells in a time-dependent and dose-dependent manner | inhibit proliferation of cancer cells in a time-dependent and dose-dependent manner | – |
| CCOC(=O)c1c2c3ccccc3c3ccccc3c2cc2[n+]1CCc1ccccc1-2 [DC_C66] | 1.8 | 21 | 47 | inhibit proliferation of cancer cells in a time-dependent and dose-dependent manner | inhibit proliferation of cancer cells in a time-dependent and dose-dependent manner | inhibit proliferation of cancer cells in a time-dependent and dose-dependent manner | < 50 |
| Nc1ncnc2c1ncn2[C@@H]1O[C@H](C[C@@H](N)CC[C@H](N)C(=O)O)[C@@H](O)[C@H]1O [Sinefungin, reference compound] | – | – | – | weaker inhibitory activity | weaker inhibitory activity | weaker inhibitory activity | – |
